Laboratory results as given in patent US6043245A, “Tetrahydrofuran antifungal phosphate” (Schering Corporation, priority 1998, dated 2000).
Where two headings read alike, the source gives them in different places.

Experiments:
[1] = Pharmacokinetic studies in human tissues and serum (metabolism); type: in vitro ADME
[2] = system: Cryptococcus neoformans; experiment: In vitro antifungal activity against Cryptococcus neoformans; type: cell-based
Experimental: (§1) The in vitro anti-fungal activities of the compounds of the formulas II, III and IV against forty-one species of Candida, thirty species of Aspergillus and nine species of Cryptococcus are summarized in Table 5. […] This Aspergillus pulmonary infection model in mice was performed in accordance with the procedures of David Loebenberg et al. entitled "In vitro and in vivo activity of Sch 42427, the active enantiomer of the antifungal agent Sch 39304" published in Antimicrobial Agents and Chemotherapy (1992), Vol. 36, pp. 498-501.
(§2) In Vitro Antifungal Activity(mcg/mL)
(§3) ^3 In vitro activity measured in accordance with procedures for NCCLS

[3] = system: Aspergillus fumigatus; experiment: Aspergillus pulmonary infection model in mice; type: in vivo, mouse; Aspergillus fumigatus; conditions: 10 mg/kg
Experimental: as §1

[4] = system: Candida, Aspergillus and Cryptococcus; experiment: In vitro antifungal activity, comparison of geometric mean MICs; type: cell-based; conditions: comparison among II, III and IV
Experimental: as §1

[5] = system: Candida albicans; experiment: Mice with a systemic Candida albicans infection; type: in vivo, mouse; Candida albicans; conditions: 10 mg/kg
[6] = system: fungal infection; experiment: Antifungal activity in in vivo tests in mice; parameters: species or system mouse; conditions: for antifungal activity in in vivo tests in mice versus existing antifungal agents: versus itraconazole, fluconazole and azoles of US 5,039,676 and WO 93/09114
Experimental: as §1

[7] = system: Candida species; experiment: In vitro antifungal activity against Candida species; type: cell-based
Experimental: as §1, §2, §3

[8] = In vivo hydrolysis of prodrug; conditions: II to III; III to IV
Text: The compound of formula II hydrolyzes in vivo to the compound of formula III; III then hydrolyzes in vivo to the compound of formula IV.

[9] = Plasma pharmacokinetics of formula IV in mice after intravenous di-NMG salt; type: in vivo, mouse (male Charles River); parameters: AUC (of formula IV), time zero to 24 hrs: unit not given here; conditions: for AUC (of formula IV), time zero to 24 hrs: Table 3, mouse plasma, IV 20 mg/kg formula IV equivalent of di-NMG salt
Experimental: Concentrations of the compound of formula IV in pooled mouse^1
plasma (2 mice/pool) following intravenous administration of a 20
mg/kg of the compound of formula IV dose equivalent of the di-NMG
salt of the compound of this invention represented by the formula II in
^1 Male Charles River mice having an average body weight of 18-20 g
mg/kg of compound of formula IV dose equivalent of the di-NMG
salt of the compound of the prior art represented by formula V
PHARMACOKINETIC ("PK") PARAMETERS OF THE
COMPOUND OF FORMULA IV IN MOUSE^1 PLASMA
FOLLOWING INTRAVENOUS ADMINISTRATION OF 20 MG/KG
OF COMPOUND OF FORMULA IV DOSE EQUIVALENT OF THE
DI-NMG SALTS OF THE COMPOUNDS OF FORMULAS II AND V
IN STERILE WATER TO MICE.

[10] = Water solubility; type: physicochemical
[11] = system: Aspergillus species; experiment: In vitro antifungal activity against Aspergillus species; type: cell-based; conditions: Aspergillus species (n = 30); Espinel-Ingroff's methodology
Experimental: as §1, §2
^2 In vitro activity against Aspergillus measured in accordance with
EspinelIngroff's Methodology

[12] = read-out: G mean MICs (geometric mean MIC)

| Compound | MIC [2, 12] | MIC ([2]; read-out: MIC Range) | MIC [7, 12] | site of hydrolysis in vivo [8] | AUC (of formula IV), time zero to 24 hrs [9] | MIC [11] | antifungal activity in in vivo tests in mice versus existing antifungal agents [6] | MIC ([7]; read-out: MIC Range) | further results |
| --- | --- | --- | --- | --- | --- | --- | --- | --- | --- |
| CC[C@@H]([C@H](C)OC(=O)CCCOP(=O)(O)O)n1ncn(-c2ccc(N3CCN(c4ccc(OC[C@@H]5CO[C@@](Cn6cncn6)(c6ccc(F)cc6F)C5)cc4)CC3)cc2)c1=O [Formula II, 5-[[2(S)-[4-[4-[4-[4-[[(R-cis)-5-(2,4-difluorophenyl)-tetrahydro-5-(1H-1,2,4-triazol-1-ylmethyl)-3-furanyl]methoxy]phenyl]-1-piperazinyl]phenyl]-4,5-dihydro-5-oxo-1H-1,2,4-triazol-1-yl]-1(S)-methylbutyl]oxy]-5-oxobutyl phosphate] | 1.9 mg/L | 0.125 to 32 mg/L | 7.5 mg/L | primarily in the serum and in tissues (liver, lung and kidney) | – | – | – | – | metabolism [1]: metabolized to the compound of formula IV via the metabolite represented by formula III; survival [3]: 70%; in vitro antifungal activity, comparison of geometric mean MICs [4]: much lower; survival at day 9 [5]: 100%; in vivo activity in two mice models ([6]; systemic Candida albicans and pulmonary Aspergillus fumigatus): good in vivo activity |
| CC[C@@H]([C@H](C)OC(=O)CCCOP(=O)(O)O)n1ncn(-c2ccc(N3CCN(c4ccc(OC[C@@H]5CO[C@@](Cn6cncn6)(c6ccc(F)cc6F)C5)cc4)CC3)cc2)c1=O [Formula II.2 NMG] | – | – | – | – | 79.1 | – | – | – | blood levels of the compound of formula IV ([9]; mice, intravenous, in water): superior blood levels; pharmacokinetic parameters of formula IV versus those from di-NMG salt of formula V ([9]; mice, intravenous, side-by-side comparison): unexpectedly superior; water solubility [10]: water soluble |
| CC[C@@H]([C@H](C)OC(=O)CCCO)n1ncn(-c2ccc(N3CCN(c4ccc(OC[C@@H]5CO[C@@](Cn6cncn6)(c6ccc(F)cc6F)C5)cc4)CC3)cc2)c1=O [Formula III, 2(S)-[4-{4-{4-{4-[[(R-Cis)-2-(2,4-difluorophenyl)-tetrahydro-2-(1H-1,2,4-triazol-1-ylmethyl)-4-furanyl]methoxy]phenyl]-1-piperazinyl]phenyl]-4,5-dihydro-5-oxo-1H-1,2,4-triazol-1-yl]-1-(S)-methylbutyl-4-hydroxy-butanoate] | 0.09 mg/L | 0.0156 to 0.5 mg/L | 0.3 mg/L | primarily in the serum | – | 0.0313 to 2 mg/L | unexpectedly better than that of existing antifungal agents | 0.0156 to 8 mg/L | – |
| CC[C@@H]([C@H](C)O)n1ncn(-c2ccc(N3CCN(c4ccc(OC[C@@H]5CO[C@@](Cn6cncn6)(c6ccc(F)cc6F)C5)cc4)CC3)cc2)c1=O [Formula IV, reference compound] | 0.04 mg/L | 0.015 to 0.5 mg/L | 0.2 mg/L | – | – | 0.0156 to 1 mg/L | unexpectedly better than that of existing antifungal agents | 0.0156 to 8 mg/L | – |
| CC[C@@H]([C@H](C)OC(=O)CCCCOP(=O)(O)O)n1ncn(-c2ccc(N3CCN(c4ccc(OC[C@@H]5CO[C@@](Cn6cncn6)(c6ccc(F)cc6F)C5)cc4)CC3)cc2)c1=O [Formula V.2 NMG, reference compound] | – | – | – | – | 36.7 | – | – | – | – |
